For two compounds, Activity results are on record in ChEMBL document CHEMBL3826958, “Zinc-mediated binding of a low-molecular-weight stabilizer of the host anti-viral factor apolipoprotein B mRNA-editing enzyme, catalytic polypeptide-like 3G” (Bioorg Med Chem, 2016).

Assay [1] has as its target DNA dC->dU-editing enzyme APOBEC-3G (Homo sapiens) (UniProt Q9HC16). Put plainly: Binding affinity to FLAG-tagged human A3G expressed in human 293T cells at 13 uM incubated for 16 hrs by streptavidin agarose based immunoblot analysis. The format is cell-based.
Assay [2] shares this target. Kind of assay: Binding affinity to FLAG-tagged human A3G expressed in human 293T cells at 13 uM incubated for 16 hrs in presence of EDTA by streptavidin agarose based immunoblot analysis. The format is cell-based. For orientation: Immunoblotting shows a protein as a band on a membrane.

Calls of active or inactive are those of the source. The rule behind the calls is not given here.

Sequence of DNA dC->dU-editing enzyme APOBEC-3G (Homo sapiens) (Q9HC16 whole entry): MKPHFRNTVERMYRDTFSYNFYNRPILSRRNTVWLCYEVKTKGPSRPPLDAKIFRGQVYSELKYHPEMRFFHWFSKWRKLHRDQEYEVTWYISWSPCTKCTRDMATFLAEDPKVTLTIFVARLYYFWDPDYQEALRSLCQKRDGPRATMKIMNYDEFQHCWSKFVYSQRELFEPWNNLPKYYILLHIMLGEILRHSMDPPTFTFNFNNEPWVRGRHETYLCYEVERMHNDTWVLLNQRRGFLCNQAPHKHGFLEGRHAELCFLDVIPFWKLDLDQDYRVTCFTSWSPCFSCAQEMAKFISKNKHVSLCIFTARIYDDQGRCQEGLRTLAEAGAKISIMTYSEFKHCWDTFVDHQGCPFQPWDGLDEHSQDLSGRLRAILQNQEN

Consider `COC(=O)CCCC[C@@H]1SC[C@@H]2NC(=O)N[C@@H]21`, for which the result in assay [1] was inactive.
As for `O=C(CCCC[C@@H]1SC[C@@H]2NC(=O)N[C@@H]21)NCCCCCCOC(=O)Nc1cc(CNCCS)nc(CNCCS)c1`, the result in assay [2] was inactive. Also, in assay [1], the outcome was Active.
